PubChem BioAssay (NCI)
Several values for one entry are separate records, joined by “and”; a condition that tells them apart may be missing. Identical values can stand only once.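 The compound was tested at five concentrations on cells cultured in 96-well plates, with a 48-hour exposure period. GI50 = concentration required for 50% inhibition of growth. TGI: total growth inhibition.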

Assays:
Test in all cases: NCI anticancer screen, dose series, 48 h
UO-31 renal = test system: UO-31 renal
SR leukemia = test system: SR leukemia
SK-MEL-5 melanoma = test system: SK-MEL-5 melanoma
KM12 colon = test system: KM12 colon
SK-MEL-28 melanoma = test system: SK-MEL-28 melanoma
SNB-75 CNS = test system: SNB-75 CNS
M14 melanoma = test system: M14 melanoma
MALME-3M melanoma = test system: MALME-3M melanoma
RXF 393 renal = test system: RXF 393 renal
CAKI-1 renal = test system: CAKI-1 renal

Compound	TGI (UO-31 renal)	TGI (SR leukemia)	TGI (SK-MEL-5 melanoma)	TGI (KM12 colon)	TGI (SK-MEL-28 melanoma)	TGI (SNB-75 CNS)	TGI (M14 melanoma)	TGI (MALME-3M melanoma)	TGI (RXF 393 renal)	GI50 (UO-31 renal)	GI50 (SR leukemia)	GI50 (SK-MEL-5 melanoma)	GI50 (SK-MEL-28 melanoma)	GI50 (SNB-75 CNS)	GI50 (MALME-3M melanoma)	GI50 (RXF 393 renal)	TGI (CAKI-1 renal)	GI50 (KM12 colon)	GI50 (CAKI-1 renal)	GI50 (M14 melanoma)
CC(=O)NC1C(OCc2ccccc2)OC(CO)C(O)C1OC(C)C(=O)N[C@@H](C)C(=O)N[C@H](CCC(=O)OCCNc1c2ccccc2nc2cccc([N+](=O)[O-])c12)C(N)=O (stereo partly drawn)	0.0107 µM	> 0.1 µM	0.00855 µM	0.00538 µM	0.0118 µM	0.0405 µM and 0.00887 µM	0.00251 µM	0.00356 µM	0.00304 µM											
COc1cc(-c2cc(-c3ccc(Nc4ccnc5cc(Cl)ccc45)cc3)nc(N3CCOCC3)n2)cc(OC)c1OC	3.11 µM	2.41 µM	> 100 µM		3.93 µM	3.44 µM		3.97 µM	4.44 µM	1.57 µM	0.468 µM	3.5 µM	1.98 µM	1.65 µM	1.86 µM	1.8 µM				
CN(C)C(=Nc1nc(=[N+](C)C)ss1)N(C)C	> 100 µM		> 100 µM	> 100 µM	> 100 µM	> 100 µM	> 100 µM		> 100 µM								> 100 µM			
COC(=O)C1OC2(CCCC3CC32)O[C@H]1C(=O)OC (stereo partly drawn)	> 100 µM	> 100 µM		> 100 µM	> 100 µM	> 100 µM	> 100 µM	> 100 µM	> 100 µM								> 100 µM			
O=C1NC(=O)C(=Nc2cccc3c(=O)[nH][nH]c(=O)c23)C(c2nc3ccccc3s2)C1=O (stereo not drawn)	> 100 µM		> 100 µM	> 100 µM	> 100 µM	> 100 µM	> 100 µM	> 100 µM	> 100 µM								> 100 µM			
Cc1cn(C2C=CC(CO)O2)c(=O)[nH]c1=O (stereo not drawn)	> 1000 µM	> 1000 µM	> 1000 µM	> 1000 µM		> 1000 µM	> 1000 µM	> 1000 µM									> 1000 µM			
COc1ccccc1C1=C(Nc2ccccc2)C(=O)NC1=O	> 25 µM		> 25 µM	> 25 µM	> 25 µM	> 25 µM	> 25 µM	> 25 µM	> 25 µM	> 25 µM		> 25 µM	> 25 µM	> 18.1 µM	> 25 µM	7.87 µM	> 25 µM	> 23.8 µM	> 25 µM	> 25 µM
Nc1cc(O)ccc1N=Nc1ccc(-c2nc3ccccc3[nH]2)cc1	> 100 µM	> 100 µM	> 100 µM	> 100 µM	> 100 µM	> 100 µM	> 100 µM			30.5 µM	68.5 µM	38.8 µM	34.8 µM	> 100 µM			82.3 µM	5.07 µM	3.51 µM	> 100 µM
O=C(/C=C/c1ccco1)c1ccc(NCc2nc3ccccc3[nH]2)cc1	27.3 µM	37.7 µM	28.6 µM	22.6 µM	33.8 µM	31.1 µM	30.9 µM	33.2 µM									49.9 µM			
O=[N+]([O-])c1ccc(-c2noc(-c3ccc(Cl)cc3)c2C2=NCCN2)cc1	> 100 µM	> 100 µM	> 100 µM	> 100 µM	> 100 µM		> 100 µM	> 100 µM	> 100 µM								> 100 µM			
CCC/C=C1\CCC(CN(C)C)C1=O (stereo not drawn)	26.6 µM	8.98 µM	32.3 µM	15.3 µM	14.9 µM	32.9 µM	16.1 µM	11.4 µM									4.59 µM			
COc1cc2c(cc1OC)C(Sc1ccc(SC)cc1)c1c(nc(N)c(C#N)c1N)O2 (stereo not drawn)	2.6 µM	2.35 µM	3.07 µM	3.46 µM	3.22 µM	3.16 µM	3.24 µM	3.35 µM	2.52 µM	1.33 µM	0.354 µM	1.69 µM	1.72 µM	1.54 µM	1.85 µM	1.25 µM		1.81 µM		1.74 µM
Cc1nnc2c3nnc(C)n3c3ccccc3n12	> 100 µM		> 100 µM	> 100 µM	> 100 µM	> 100 µM	> 100 µM	> 100 µM	> 100 µM								> 100 µM			
O=C(CC1(O)C(=O)Nc2ccc(Br)cc21)c1ccc(Cl)cc1Cl (stereo not drawn)	> 100 µM	50.7 µM		> 100 µM	> 100 µM	> 100 µM	> 100 µM	> 100 µM	> 100 µM											
CCC(c1ccc(OC)cc1)C(CC)c1ccc(O)c(CN2CCN(C)CC2)c1 (stereo not drawn)	7.32 µM	5.44 µM	3.22 µM	12 µM	4.23 µM	23 µM	3.8 µM		12.2 µM	1.83 µM	1.71 µM	1.69 µM	2.16 µM	10 µM		2.83 µM	10.6 µM	3.68 µM	2.61 µM	1.99 µM
COC(=O)/C(=N/Nc1cccc(Cl)c1)C(C(=O)C(=O)Nc1cccc(Cl)c1C)c1nc2ccccc2nc1C (stereo not drawn)	75.1 µM	> 100 µM	> 100 µM	> 100 µM	> 100 µM		> 100 µM	> 100 µM	> 100 µM								> 100 µM			
S=C(Nc1ccc(N=Nc2ccccc2)cc1)SCc1ccccc1	34.9 µM		29.6 µM	30.6 µM	38 µM	44.2 µM	37.6 µM	22.9 µM	46.4 µM								32.9 µM			
CC(=O)c1c(CN(C)c2ccccc2)n([O-])c2ccccc2[n+]1=O	> 100 µM	> 100 µM	42.4 µM	> 100 µM	> 100 µM	> 100 µM	80.4 µM	87.2 µM	62.7 µM	32 µM	5.79 µM	16 µM	38.7 µM	53 µM	23.9 µM	21.2 µM		29.6 µM		31.4 µM
Cc1cc(-c2ccccc2)nc(Nc2nc3ccccc3o2)n1	> 100 µM	> 100 µM	> 100 µM	> 100 µM	> 100 µM		> 100 µM	> 100 µM									> 100 µM			
CCOc1ccc2c(c1)[n+]([O-])c(-c1ccc(Br)cc1)c(N)[n+]2[O-]	> 100 µM		40.9 µM	> 100 µM	> 100 µM	> 100 µM	> 100 µM	> 100 µM									64.1 µM			
